In US7700608B2, “Quinazoline derivatives and their use in the treatment of thrombocythemia” (Shire Holdings AG, priority 2004, dated 2010):

Assays:
Cord blood CD34+ cells = test: TPO-induced megakaryocytic maturation/differentiation of cord blood CD34+ cells in culture; format: cell-based; settings: for inhibition at 0.03 µM: 30 nM, CD34+ cells grown with TPO in plasma-containing medium, vs. control, read-out: inhibition of megakaryocytic maturation (percentage of GPIIIa positive cells); for Cell expansion % of control / GPIIIa expression median fluorescence % of control / GPIIIa positive cells % of control / Relative cell size % of control: 1.0 μM, 12 days, plasma-containing medium with TPO, mean ± SE, n = 4; for concentration giving maximal effect on megakaryocyte maturation / IC50: TPO-induced maturation, FIG. 1; for IC50: mean of 2-4 independent experiments, read-out: IC50 against megakaryocyte maturation
Protocol: Chemicals. Compound #1 was kept at room temperature. Stock solutions (10 mM) were made in DMSO, or PBS pH 5. 0, as indicated. Stock solutions were diluted in culture medium immediately before addition to cell suspensions.
(§1) Cell culture and drug regimes. Cord blood CD34+ cells were purchased from Biowhittacker USA or were freshly isolated by immunomagnetic selection using standard laboratory procedures. Cells were seeded in 24-well tissue culture plates at a density of 0.15×10^6 cells/ml and cultured for 12-14 days in Iscove's modified Dulbecco's medium containing 40 ng/ml TPO (as described in Mathur A, Hong Y. Martin J F, Erusalimsky J D (2001) Megakaryocytic differentiation is accompanied by a reduction in cell migratory potential. Br J Haematol 112:459) with anagrelide, Compound #1, or vehicle (DMSO).
(§2) Cell counting. Cell density was determined using a Sysmex CDA-500 Particle Analyzer.
(§3) Analysis of megakaryocytic differentiation. CD61 expression (a marker of megakaryocytic differentiation) was quantified by flow cytometry using an anti-GPIIIa antibody. Cell diameter was determined using a Sysmex CDA-500 Particle Analyzer.

[1] = system: non-megakaryocytic cells (CD61-); test: Growth of non-megakaryocytic (CD61-) cells in the TPO-stimulated CD34+ cultures; format: cell-based; settings: 12-day cultures, FIG. 2
Protocol: as §1, §2, §3
To assess whether the inhibitory activities of anagrelide and Compound #1 in these cultures were selective for the megakaryocytic lineage, the effects of these compounds were evaluated on the growth of the non-megakaryocytic cells. In 12-day control cultures these cells (CD61-) represent 20-30% of the total population.

O=C1CN2Cc3c(ccc(Cl)c3Cl)N=C2N1 [Anagrelide]
inhibition at 0.03 µM (Cord blood CD34+ cells): 28%
Cell expansion % of control (Cord blood CD34+ cells): 48.0 ± 4.0 % of control
GPIIIa expression median fluorescence % of control (Cord blood CD34+ cells): 51.3 ± 11.9 % of control
GPIIIa positive cells % of control (Cord blood CD34+ cells): 41.9 ± 6.6 % of control
Relative cell size % of control (Cord blood CD34+ cells): 80.4 ± 4.5 % of control
concentration giving maximal effect on megakaryocyte maturation (Cord blood CD34+ cells): 1 µM
IC50 (Cord blood CD34+ cells): 110 to 130 nM
effect on growth of non-megakaryocytic cells (selectivity for megakaryocytic lineage) [1]: neither anagrelide nor Compound #1 inhibited the growth of non-megakaryocytic cells

O=CC(=O)NC1=Nc2ccc(Cl)c(Cl)c2CN1 [Compound #1, N-(5,6-dichloro-3,4-dihydroquinazolin-2-yl)-2-oxoacetamide]
inhibition at 0.03 µM (Cord blood CD34+ cells): 20%
Cell expansion % of control (Cord blood CD34+ cells): 45.8 ± 3.9 % of control
GPIIIa expression median fluorescence % of control (Cord blood CD34+ cells): 54.4 ± 14.7 % of control
GPIIIa positive cells % of control (Cord blood CD34+ cells): 34.5 ± 4.4 % of control
Relative cell size % of control (Cord blood CD34+ cells): 78.7 ± 5.3 % of control
concentration giving maximal effect on megakaryocyte maturation (Cord blood CD34+ cells): 1 µM
IC50 (Cord blood CD34+ cells): 110 to 130 nM
effect on growth of non-megakaryocytic cells (selectivity for megakaryocytic lineage) [1]: neither anagrelide nor Compound #1 inhibited the growth of non-megakaryocytic cells
